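Compound exposure: 48 hours, 5 concentrations, 96-well plates. At the TGI there is no net growth.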
What was measured:
Test in all cases: NCI anticancer screen, dose series, 48 h
NCI-H460 lung = system: NCI-H460 lung
MALME-3M melanoma = system: MALME-3M melanoma
RXF-631 renal = system: RXF-631 renal
SK-OV-3 ovarian = system: SK-OV-3 ovarian
NCI-H226 lung = system: NCI-H226 lung
NCI-H23 lung = system: NCI-H23 lung
CCRF-CEM leukemia = system: CCRF-CEM leukemia
SR leukemia = system: SR leukemia
OVCAR-8 ovarian = system: OVCAR-8 ovarian
HCT-116 colon = system: HCT-116 colon
EKVX NSCLC = system: EKVX NSCLC
ACHN renal = system: ACHN renal
UO-31 renal = system: UO-31 renal
MOLT-4 leukemia = system: MOLT-4 leukemia
M14 melanoma = system: M14 melanoma
SF-295 CNS = system: SF-295 CNS
NCI-H522 lung = system: NCI-H522 lung
LOX IMVI melanoma = system: LOX IMVI melanoma
DMS 273 small cell lung = system: DMS 273 small cell lung
HOP-92 NSCLC = system: HOP-92 NSCLC
M19-MEL melanoma = system: M19-MEL melanoma
KM12 colon = system: KM12 colon
IGROV1 ovarian = system: IGROV1 ovarian
A549 NSCLC = system: A549 NSCLC
UACC-62 melanoma = system: UACC-62 melanoma
SN12C renal = system: SN12C renal
OVCAR-3 ovarian = system: OVCAR-3 ovarian
RPMI-8226 leukemia = system: RPMI-8226 leukemia
HCC-2998 colon = system: HCC-2998 colon
OVCAR-5 ovarian = system: OVCAR-5 ovarian
COLO 205 colon = system: COLO 205 colon
SF-539 CNS = system: SF-539 CNS
SK-MEL-28 melanoma = system: SK-MEL-28 melanoma
786-0 renal = system: 786-0 renal
OVCAR-4 ovarian = system: OVCAR-4 ovarian
SK-MEL-5 melanoma = system: SK-MEL-5 melanoma
HOP-18 NSCLC = system: HOP-18 NSCLC
SK-MEL-2 melanoma = system: SK-MEL-2 melanoma
SNB-19 CNS = system: SNB-19 CNS
SW-620 colon = system: SW-620 colon
HL-60(TB) leukemia = system: HL-60(TB) leukemia
A498 renal = system: A498 renal
HCT-15 colon = system: HCT-15 colon
TK-10 renal = system: TK-10 renal
K-562 leukemia = system: K-562 leukemia
SF-268 CNS = system: SF-268 CNS
CAKI-1 renal = system: CAKI-1 renal
KM20L2 colon = system: KM20L2 colon
SNB-75 CNS = system: SNB-75 CNS
RXF 393 renal = system: RXF 393 renal
DLD-1 colon = system: DLD-1 colon
HT29 colon = system: HT29 colon
UACC-257 melanoma = system: UACC-257 melanoma
XF 498 CNS = system: XF 498 CNS
HOP-62 NSCLC = system: HOP-62 NSCLC
U251 CNS = system: U251 CNS
LXFL 529 NSCLC = system: LXFL 529 NSCLC
DMS 114 small cell lung = system: DMS 114 small cell lung
SNB-78 CNS = system: SNB-78 CNS

## CCOC(=O)C1=C(Nc2cccc3ccccc23)OC/C1=N\NC(=O)c1ccccc1O
NCI-H460 lung
  TGI: > 71.4 µM
MALME-3M melanoma
  TGI: > 100 µM
RXF-631 renal
  TGI: > 100 µM
SK-OV-3 ovarian
  TGI: > 100 µM
NCI-H226 lung
  TGI: > 100 µM
NCI-H23 lung
  TGI: 15.3 µM
CCRF-CEM leukemia
  TGI: 37.1 µM
SR leukemia
  TGI: 41.4 µM
OVCAR-8 ovarian
  TGI: 67.8 µM
HCT-116 colon
  TGI: > 69.6 µM
EKVX NSCLC
  TGI: > 82.7 µM
ACHN renal
  TGI: > 100 µM
UO-31 renal
  TGI: > 87.6 µM
MOLT-4 leukemia
  TGI: 53.5 µM
M14 melanoma
  TGI: > 100 µM
SF-295 CNS
  TGI: > 100 µM
NCI-H522 lung
  TGI: 24.8 µM
LOX IMVI melanoma
  TGI: > 72.5 µM
DMS 273 small cell lung
  TGI: > 61.1 µM
HOP-92 NSCLC
  TGI: 46.1 µM
M19-MEL melanoma
  TGI: > 100 µM
KM12 colon
  TGI: > 100 µM
IGROV1 ovarian
  TGI: 29.8 µM
A549 NSCLC
  TGI: > 100 µM
UACC-62 melanoma
  TGI: 48.9 µM
SN12C renal
  TGI: > 88 µM
OVCAR-3 ovarian
  TGI: 60 µM
RPMI-8226 leukemia
  TGI: > 100 µM
HCC-2998 colon
  TGI: > 100 µM
OVCAR-5 ovarian
  TGI: > 100 µM
COLO 205 colon
  TGI: 29.3 µM
SF-539 CNS
  TGI: 46.8 µM
SK-MEL-28 melanoma
  TGI: > 100 µM
786-0 renal
  TGI: > 100 µM
OVCAR-4 ovarian
  TGI: > 59.1 µM
SK-MEL-5 melanoma
  TGI: 37.4 µM
HOP-18 NSCLC
  TGI: 83.7 µM
SK-MEL-2 melanoma
  TGI: > 100 µM
SNB-19 CNS
  TGI: > 100 µM
SW-620 colon
  TGI: > 100 µM
HL-60(TB) leukemia
  TGI: 37.8 µM
A498 renal
  TGI: 70.6 µM
HCT-15 colon
  TGI: > 100 µM
TK-10 renal
  TGI: > 100 µM
K-562 leukemia
  TGI: > 100 µM
SF-268 CNS
  TGI: > 100 µM
CAKI-1 renal
  TGI: 80.2 µM
KM20L2 colon
  TGI: 90.8 µM
SNB-75 CNS
  TGI: 39.5 µM
RXF 393 renal
  TGI: > 37.5 µM
DLD-1 colon
  TGI: 81.5 µM
HT29 colon
  TGI: > 88.5 µM
UACC-257 melanoma
  TGI: 77.1 µM
XF 498 CNS
  TGI: 30.7 µM
HOP-62 NSCLC
  TGI: > 100 µM
U251 CNS
  TGI: > 100 µM
LXFL 529 NSCLC
  TGI: > 100 µM
DMS 114 small cell lung
  TGI: 31.6 µM

## O=C1NC2C=CN(Cc3ccccc3)C=C2C(=O)N2CCCC12 (centres undefined)
NCI-H460 lung
  TGI: > 100 µM
MALME-3M melanoma
  TGI: > 100 µM
RXF-631 renal
  TGI: > 100 µM
SK-OV-3 ovarian
  TGI: > 100 µM
NCI-H226 lung
  TGI: > 100 µM
NCI-H23 lung
  TGI: > 100 µM
CCRF-CEM leukemia
  TGI: > 100 µM
SR leukemia
  TGI: > 100 µM
OVCAR-8 ovarian
  TGI: > 100 µM
HCT-116 colon
  TGI: > 100 µM
EKVX NSCLC
  TGI: > 100 µM
ACHN renal
  TGI: > 100 µM
UO-31 renal
  TGI: > 100 µM
MOLT-4 leukemia
  TGI: > 100 µM
M14 melanoma
  TGI: > 100 µM
SF-295 CNS
  TGI: > 100 µM
NCI-H522 lung
  TGI: > 100 µM
DMS 273 small cell lung
  TGI: > 100 µM
HOP-92 NSCLC
  TGI: > 100 µM
M19-MEL melanoma
  TGI: > 100 µM
KM12 colon
  TGI: > 100 µM
IGROV1 ovarian
  TGI: > 100 µM
A549 NSCLC
  TGI: > 100 µM
UACC-62 melanoma
  TGI: > 100 µM
SN12C renal
  TGI: > 100 µM
OVCAR-3 ovarian
  TGI: > 100 µM
HCC-2998 colon
  TGI: > 100 µM
OVCAR-5 ovarian
  TGI: > 100 µM
COLO 205 colon
  TGI: > 100 µM
SF-539 CNS
  TGI: > 100 µM
SK-MEL-28 melanoma
  TGI: > 100 µM
786-0 renal
  TGI: > 100 µM
OVCAR-4 ovarian
  TGI: > 100 µM
SK-MEL-5 melanoma
  TGI: > 100 µM
HOP-18 NSCLC
  TGI: > 100 µM
SK-MEL-2 melanoma
  TGI: > 100 µM
SNB-19 CNS
  TGI: > 100 µM
SW-620 colon
  TGI: > 100 µM
HL-60(TB) leukemia
  TGI: > 100 µM
A498 renal
  TGI: > 100 µM
HCT-15 colon
  TGI: > 100 µM
TK-10 renal
  TGI: > 100 µM
SF-268 CNS
  TGI: > 100 µM
CAKI-1 renal
  TGI: > 100 µM
KM20L2 colon
  TGI: > 100 µM
SNB-75 CNS
  TGI: > 100 µM
RXF 393 renal
  TGI: > 100 µM
DLD-1 colon
  TGI: > 100 µM
HT29 colon
  TGI: > 100 µM
UACC-257 melanoma
  TGI: > 100 µM
XF 498 CNS
  TGI: > 100 µM
HOP-62 NSCLC
  TGI: > 100 µM
U251 CNS
  TGI: > 100 µM
LXFL 529 NSCLC
  TGI: > 100 µM
DMS 114 small cell lung
  TGI: > 100 µM
SNB-78 CNS
  TGI: > 100 µM
